From US10975068B2, “6-aminopyridin-3-yl thiazoles as modulators of RORγT” (Janssen Pharmaceutica NV, priority 2016, dated 2021)

Target: full-length human RORγt (Homo sapiens (Human), UniProt P51449)
Test: RORγt (full-length human) reporter assay, Conditions B or C
Format: cell-based
Settings: for inhibition at 3 µM: at 3 μM compound concentration, read-out: RORγt (FL) Reporter Assay B or C, % inhibition
From the text: RORγt (Full-Length Human) Reporter Assay:
Cells used in this assay were transiently co-transfected with three different plasmids, one expressing the GAL4-DNA binding domain (DBD)-RORγt fusion protein under control of a CMV promoter (NH2-Gal4-DBD:RORC-COOH in pCMV-BD, Stratagene #211342), and two reporter plasmids—the firefly luciferase reporter under control of a GAL4 promoter (pFR-Luc 2×GAL4) and Renilla luciferase reporter under control of CMV promoter (pRL-CMV, Promega # E2261). The full-length coding sequence was used for human RORγt, i.e., nucleotides 142-1635 of human RORγt, transcript variant 2, NCBI Accession: NM_001001523.1 (SEQ ID NO:1). HEK293T cells were plated at 35,000 per well in 96-well plate in medium of DMEM with 10% FBS. After 18-22 hours incubation, the transfection was carried out by using a PEI solution with 170.5 ng total DNA/well (50 ng pCMV-BD-ROR plus 20 ng of pFR-Luc reporter and 0.5 ng of pRL-CMV reporter plus 100 ng Carrier DNA (Clontech #630440) for each well). 4-6 hours after transfection, cells were treated with compounds for overnight in the medium with final concentration of FBS 1.3% and DMSO 0.1%. After overnight (16 to 20 hours) incubation, media were removed and cells were lysed with 50 μL Glo Lysis Buffer (Promega) for 10-15 minutes followed by 10 minute incubation with 50 μL Dual Glo reagent (Promega) at room temperature. Firefly luciferase luminescence was measured using a BMG Pherastar plate reader. To each well, 50 μL Stop and Glo reagent was added and incubated for 10 minutes at room temperature. Renilla luminescence was measured using a BMG Pherastar plate reader. To calculate the effect of compounds on RORγt activity, firefly values were normalized against values of DMSO only and values of reference compound at saturating concentration, then further normalized against Renilla signals. IC50s were generated by plotting final Renilla normalized data against compound concentration and percent inhibition was calculated against DMSO control.
Cells used in this assay were transiently co-transfected with three different plasmids, one expressing the GAL4-DNA binding domain (DBD)-RORγt fusion protein under control of a CMV promoter (NH2-Gal4-DBD:RORC-COOH in pCMV-BD, Stratagene #211342), and two reporter plasmids—the firefly luciferase reporter under control of a GAL4 promoter (pFR-Luc 2×GAL4) and Renilla luciferase reporter under control of CMV promoter (pRL-CMV, Promega # E2261). The full-length coding sequence was used for human RORγt, i.e., nucleotides 142-1635 of human RORγt, transcript variant 2, NCBI Accession: NM_001001523.1 (SEQ ID NO:1). HEK293T cells were plated at 8750 cells per well in 384-well plate in medium of DMEM with 10% FBS. After 18-22 hours incubation, the transfection was carried out by using a PEI solution with 42.6 ng total DNA/well (12.5 ng pCMV-BD-ROR plus 5 ng of pFR-Luc reporter and 0.125 ng of pRL-CMV reporter plus 25 ng Carrier DNA (Clontech #630440) for each well). 4-6 hours after transfection, cells were treated with compounds for overnight in the medium with final concentration of FBS 1.3% and DMSO 0.1%. After overnight (16 to 20 hours) incubation, media were removed and cells were lysed with 20 μL Glo Lysis Buffer (Promega) for 10-15 minutes followed by 10 minute incubation with 20 μL Dual Glo reagent (Promega) at room temperature. Firefly luciferase luminescence was measured using a BMG Pherastar plate reader. To each well, 20 μL Stop and Glo reagent was added and incubated for 10 minutes at room temperature. Renilla luminescence was measured using a BMG Pherastar plate reader. To calculate the effect of compounds on RORγt activity, firefly values were normalized against values of DMSO only and values of reference compound at saturating concentration, then further normalized against Renilla signals.

Sequence of full-length human RORγt (P51449 other isoform, or with tags, fused parts or gaps): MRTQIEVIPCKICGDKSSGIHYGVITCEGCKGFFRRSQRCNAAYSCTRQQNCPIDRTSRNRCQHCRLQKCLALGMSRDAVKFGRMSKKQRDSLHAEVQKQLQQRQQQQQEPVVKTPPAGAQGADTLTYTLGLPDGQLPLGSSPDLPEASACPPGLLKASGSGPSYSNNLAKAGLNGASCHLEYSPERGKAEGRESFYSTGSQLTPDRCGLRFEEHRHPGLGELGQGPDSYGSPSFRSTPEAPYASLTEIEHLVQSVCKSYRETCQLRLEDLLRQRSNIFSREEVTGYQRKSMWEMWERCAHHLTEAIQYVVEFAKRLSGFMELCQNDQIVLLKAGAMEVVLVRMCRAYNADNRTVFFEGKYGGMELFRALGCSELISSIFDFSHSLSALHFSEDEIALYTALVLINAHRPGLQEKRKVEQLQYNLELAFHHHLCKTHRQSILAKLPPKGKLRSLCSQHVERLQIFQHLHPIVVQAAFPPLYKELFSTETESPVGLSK

SMILES | inhibition at 3 µM | other results
CC[C@H](Nc1cc(C(F)F)c(-c2sc(C(=O)NCC(C)(C)O)nc2C(=O)N2CCC[C@@H]2C)cn1)C(F)(F)F [Example 92, 5-(4-(Difluoromethyl)-6-(((S)-1,1,1-trifluorobutan-2-yl)amino)pyridin-3-yl)-N-(2-hydroxy-2-methylpropyl)-4-((S)-2-methylpyrrolidine-1-carbonyl)thiazole-2-carboxamide] |  | RORγt (FL) Reporter Assay B or C, % inhibition (value marked *) (Conditions B or C, marked *: footnote not given): 106* %
C[C@H](Nc1cc(C(F)F)c(-c2sc(C(=O)NCC(C)(C)O)nc2C(=O)N2CCC[C@@H]2C)cn1)C(F)(F)F [Example 145, 5-(4-(Difluoromethyl)-6-(((S)-1,1,1-trifluoropropan-2-yl)amino)pyridin-3-yl)-N-(2-hydroxy-2-methylpropyl)-4-((S)-2-methylpyrrolidine-1-carbonyl)thiazole-2-carboxamide] |  | RORγt (FL) Reporter Assay B or C, % inhibition (value marked ***) (Conditions B or C, marked ***: footnote not given): 76*** %
[2H]C([2H])(NC(=O)c1nc(C(=O)N2CCC[C@@H]2C)c(-c2cnc(N[C@@H](C)C(F)(F)F)cc2C(F)F)s1)C(C)(C)O [Example 286, 5-(4-(Difluoromethyl)-6-(((S)-1,1,1-trifluoropropan-2-yl)amino)pyridin-3-yl)-N-(2-hydroxy-2-methylpropyl-1,1-d2)-4-((S)-2-methylpyrrolidine-1-carbonyl)thiazole-2-carboxamide] | 104% | 

The next lines start with results.

inhibition at 3 µM | SMILES | other results
98% | C[C@H]1CCCN1C(=O)c1nc(C(=O)NCC(C)(C)O)sc1-c1cnc(NC2CCCCC2)c(C#N)c1 [Example 281, 5-[5-Cyano-6-(cyclohexylamino)-3-pyridyl]-N-(2-hydroxy-2-methyl-propyl)-4-[(2S)-2-methylpyrrolidine-1-carbonyl]thiazole-2-carboxamide] | IC50 (read-out: RORγt (FL) Reporter Assay B or C, IC50): 830 nM
100% | [2H]C([2H])(NC(=O)c1nc(C(=O)N2CCC[C@@H]2C)c(-c2cnc(N[C@@H](CC)C(F)(F)F)cc2C(F)F)s1)C(C)(C)O [Example 266, N-(1,1-Dideuterio-2-hydroxy-2-methyl-propyl)-5-[4-(difluoromethyl)-6-[[(1S)-1-(trifluoromethyl)propyl]amino]-3-pyridyl]-4-[(2S)-2-methylpyrrolidine-1-carbonyl]thiazole-2-carboxamide] | 
